Assay results from patent publication US8927500B2, “Peptidomimetic macrocycles” (Aileron Therapeutics, Inc., priority 2012, dated 2015).
Where a SMILES comes first, the peptide text is derived from it. Bridges are numbered along the chain shown (N, C = ends). [ ]: non-standard residue; d: D form. Trp(6-Cl) = N[C@@H](Cc1c[nH]c2cc(Cl)ccc12)C(=O)O; Phe(4-COOH) = N[C@@H](Cc1ccc(C(=O)O)cc1)C(=O)O; R8 = C=CCCCCCC[C@@](C)(N)C(=O)O; Cba = N[C@@H](CC1CCC1)C(=O)O; S5 = C=CCCC[C@](C)(N)C(=O)O; Nle = CCCC[C@H](N)C(=O)O

How the values were obtained:
[1] = target: MDM2 (Homo sapiens, UniProt Q00987); assay: Competitive fluorescence polarization assay for MDM2; format: binding; conditions: competitive FP assay, MDM2; for IC50: read-out: IC50 (MDM2); for Ki: read-out: Ki (MDM2)
[2] = target: T1, MDMX (Homo sapiens, UniProt O15151); assay: Competitive fluorescence polarization assay for MDMX; format: binding; conditions: competitive FP assay; for IC50: read-out: IC50 (MDMX); for Ki: read-out: Ki (MDMX)
T1 sequence (O15151 1-125): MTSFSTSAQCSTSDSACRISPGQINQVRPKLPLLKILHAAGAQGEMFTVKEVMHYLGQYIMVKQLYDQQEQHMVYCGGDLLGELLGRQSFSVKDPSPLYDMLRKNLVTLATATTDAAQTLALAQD

Chain of MDM2 (Q00987 1-125): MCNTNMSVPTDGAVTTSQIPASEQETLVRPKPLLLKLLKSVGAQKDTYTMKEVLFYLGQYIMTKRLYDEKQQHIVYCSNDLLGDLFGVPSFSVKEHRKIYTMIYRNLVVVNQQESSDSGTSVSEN

IC50 [1] [nM] | Ki [1] [nM] | IC50 [2] [nM] | Ki [2] [nM] | Structure (SMILES)
10 to 100 | < 10 | 10 to 100 | 10 to 100 | CC(=O)N[C@@H](CC(C)C)C(=O)N[C@H](C(=O)N[C@@H](Cc1ccccc1)C(=O)N[C@]1(C)CCCCCCC=CCCC[C@@](C)(C(=O)N[C@@H](CO)C(=O)N[C@@H](C)C(=O)N[C@@H](Cc2ccccc2)C(N)=O)NC(=O)[C@H](CC2CCC2)NC(=O)[C@H](CCC(N)=O)NC(=O)[C@H](C)NC(=O)[C@H](Cc2c[nH]c3ccccc23)NC(=O)[C@H](Cc2ccc(C(=O)O)cc2)NC(=O)[C@H](C)NC1=O)[C@@H](C)O [compound 260] (Ac-LTF[R8]A[Phe(4-COOH)]WAQ[Cba][S5]SAF-NH2; staple 4-11)
10 to 100 | < 10 | 100 to 1000 | 10 to 100 | CC(=O)N[C@@H](CC(C)C)C(=O)N[C@H](C(=O)N[C@@H](Cc1ccccc1)C(=O)N[C@]1(C)CCCCCCC=CCCC[C@@](C)(C(=O)N[C@@H](CO)C(=O)N[C@@H](C)C(=O)N[C@@H](Cc2ccccc2)C(N)=O)NC(=O)[C@H](CC2CCC2)NC(=O)[C@H](CCC(N)=O)NC(=O)[C@H](C)NC(=O)[C@H](Cc2c[nH]c3cc(Cl)ccc23)NC(=O)[C@H](Cc2ccc(O)cc2)NC(=O)[C@H](CCC(=O)O)NC1=O)[C@@H](C)O [compound 261] (Ac-LTF[R8]EY[Trp(6-Cl)]AQ[Cba][S5]SAF-NH2; staple 4-11)
10 to 100 | < 10 | 100 to 1000 | 10 to 100 | CC(=O)N[C@@H](CC(C)C)C(=O)N[C@H](C(=O)N[C@@H](Cc1ccccc1)C(=O)N[C@]1(C)CCCCCCC=CCCC[C@@](C)(C(=O)N[C@@H](CO)C(=O)N[C@@H](C)C(=O)N[C@@H](Cc2ccccc2)C(N)=O)NC(=O)[C@H](CC2CCC2)NC(=O)[C@H](CCC(N)=O)NC(=O)[C@H](CO)NC(=O)[C@H](Cc2c[nH]c3ccccc23)NC(=O)[C@H](Cc2ccc(O)cc2)NC(=O)[C@H](C)NC1=O)[C@@H](C)O [compound 262] (Ac-LTF[R8]AYWSQ[Cba][S5]SAF-NH2; staple 4-11)
10 to 100 | < 10 | 100 to 1000 | 10 to 100 | CC(=O)N[C@@H](CC(C)C)C(=O)N[C@H](C(=O)N[C@@H](Cc1ccccc1)C(=O)N[C@]1(C)CCCCCCC=CCCC[C@@](C)(C(=O)N[C@@H](CO)C(=O)N[C@@H](C)C(=O)N[C@@H](Cc2ccccc2)C(N)=O)NC(=O)[C@H](CC2CCC2)NC(=O)[C@H](CCC(N)=O)NC(=O)[C@H](Cc2c[nH]c3ccccc23)NC(=O)[C@H](Cc2c[nH]c3ccccc23)NC(=O)[C@H](Cc2ccc(O)cc2)NC(=O)[C@H](C)NC1=O)[C@@H](C)O [compound 263] (Ac-LTF[R8]AYWWQ[Cba][S5]SAF-NH2; staple 4-11)
10 to 100 | < 10 | 10 to 100 | 10 to 100 | CC[C@H](C)[C@H](NC(=O)[C@H](C)NC(=O)[C@H](C)NC(=O)[C@]1(C)CCCC=CCCCCCC[C@@](C)(NC(=O)[C@H](Cc2ccccc2)NC(=O)[C@@H](NC(=O)[C@H](CC(C)C)NC(C)=O)[C@@H](C)O)C(=O)N[C@@H](C)C(=O)N[C@@H](Cc2ccc(O)cc2)C(=O)N[C@@H](Cc2c[nH]c3ccccc23)C(=O)N[C@@H](C)C(=O)N[C@@H](CCC(N)=O)C(=O)N[C@@H](CC2CCC2)C(=O)N1)C(=O)N[C@H](C)C(N)=O [compound 264] (Ac-LTF[R8]AYWAQ[Cba][S5]AAI[dA]-NH2; staple 4-11)
10 to 100 | < 10 | 100 to 1000 | 10 to 100 | CC[C@H](C)[C@H](NC(=O)[C@H](C)NC(=O)[C@H](C)NC(=O)[C@]1(C)CCCC=CCCCCCC[C@@](C)(NC(=O)[C@H](Cc2ccccc2)NC(=O)[C@@H](NC(=O)[C@H](CC(C)C)NC(C)=O)[C@@H](C)O)C(=O)N[C@@H](C)C(=O)N[C@@H](Cc2ccc(O)cc2)C(=O)N[C@@H](Cc2c[nH]c3cc(Cl)ccc23)C(=O)N[C@@H](C)C(=O)N[C@@H](CCC(N)=O)C(=O)N[C@@H](CC2CCC2)C(=O)N1)C(=O)N[C@H](C)C(N)=O [compound 266] (Ac-LTF[R8]AY[Trp(6-Cl)]AQ[Cba][S5]AAI[dA]-NH2; staple 4-11)
10 to 100 | < 10 | 10 to 100 | < 10 | CC[C@H](C)[C@H](NC(=O)[C@H](C)NC(=O)[C@H](C)NC(=O)[C@]1(C)CCCC=CCCCCCC[C@@](C)(NC(=O)[C@H](Cc2ccccc2)NC(=O)[C@@H](NC(=O)[C@H](CC(C)C)NC(C)=O)[C@@H](C)O)C(=O)N[C@@H](C)C(=O)N[C@@H](Cc2ccc(C(=O)O)cc2)C(=O)N[C@@H](Cc2c[nH]c3ccccc23)C(=O)N[C@@H](C)C(=O)N[C@@H](CCC(N)=O)C(=O)N[C@@H](CC2CCC2)C(=O)N1)C(=O)N[C@H](C)C(N)=O [compound 267] (Ac-LTF[R8]A[Phe(4-COOH)]WAQ[Cba][S5]AAI[dA]-NH2; staple 4-11)
< 10 | < 10 | 10 to 100 | 10 to 100 | CCCC[C@H](NC(=O)[C@H](Cc1c[nH]c2ccccc12)NC(=O)[C@H](C)NC(=O)[C@]1(C)CCCC=CCCCCCC[C@@](C)(NC(=O)[C@H](Cc2ccccc2)NC(=O)[C@@H](NC(=O)[C@H](CCC(=O)O)NC(C)=O)[C@@H](C)O)C(=O)N[C@@H](C)C(=O)N[C@@H](Cc2ccc(O)cc2)C(=O)N[C@@H](Cc2c[nH]c3ccccc23)C(=O)N[C@@H](C)C(=O)N[C@@H](CCC(N)=O)C(=O)N[C@@H](CC2CCC2)C(=O)N1)C(=O)N[C@H](C)C(N)=O [compound 270] (Ac-ETF[R8]AYWAQ[Cba][S5]AW[Nle][dA]-NH2; staple 4-11)
< 10 | < 10 | 10 to 100 | < 10 | CCCC[C@H](NC(=O)[C@H](Cc1c[nH]c2ccccc12)NC(=O)[C@H](C)NC(=O)[C@]1(C)CCCC=CCCCCCC[C@@](C)(NC(=O)[C@H](Cc2ccccc2)NC(=O)[C@@H](NC(=O)[C@H](CC(C)C)NC(C)=O)[C@@H](C)O)C(=O)N[C@@H](CCC(=O)O)C(=O)N[C@@H](Cc2ccc(O)cc2)C(=O)N[C@@H](Cc2c[nH]c3ccccc23)C(=O)N[C@@H](C)C(=O)N[C@@H](CCC(N)=O)C(=O)N[C@@H](CC2CCC2)C(=O)N1)C(=O)N[C@H](C)C(N)=O [compound 271] (Ac-LTF[R8]EYWAQ[Cba][S5]AW[Nle][dA]-NH2; staple 4-11)
< 10 | < 10 | 10 to 100 | < 10 | CCCC[C@H](NC(=O)[C@H](Cc1c[nH]c2ccccc12)NC(=O)[C@H](C)NC(=O)[C@]1(C)CCCC=CCCCCCC[C@@](C)(NC(=O)[C@H](Cc2ccccc2)NC(=O)[C@@H](NC(=O)[C@H](CCC(=O)O)NC(C)=O)[C@@H](C)O)C(=O)N[C@@H](CCC(=O)O)C(=O)N[C@@H](Cc2ccc(O)cc2)C(=O)N[C@@H](Cc2c[nH]c3ccccc23)C(=O)N[C@@H](C)C(=O)N[C@@H](CCC(N)=O)C(=O)N[C@@H](CC2CCC2)C(=O)N1)C(=O)N[C@H](C)C(N)=O [compound 272] (Ac-ETF[R8]EYWAQ[Cba][S5]AW[Nle][dA]-NH2; staple 4-11)
10 to 100 | < 10 | 10 to 100 | < 10 | CCCC[C@H](NC(=O)[C@H](Cc1c[nH]c2ccccc12)NC(=O)[C@H](C)NC(=O)[C@]1(C)CCCC=CCCCCCC[C@@](C)(NC(=O)[C@H](Cc2ccccc2)NC(=O)[C@@H](NC(=O)[C@H](CCC(=O)O)NC(C)=O)[C@@H](C)O)C(=O)N[C@@H](C)C(=O)N[C@@H](Cc2ccc(O)cc2)C(=O)N[C@@H](Cc2c[nH]c3ccccc23)C(=O)N[C@@H](C)C(=O)N[C@@H](CCC(N)=O)C(=O)N[C@@H](CC(C)C)C(=O)N1)C(=O)N[C@H](C)C(N)=O [compound 276] (Ac-ETF[R8]AYWAQL[S5]AW[Nle][dA]-NH2; staple 4-11)
10 to 100 | < 10 | 10 to 100 | < 10 | CCCC[C@H](NC(=O)[C@H](Cc1c[nH]c2ccccc12)NC(=O)[C@H](C)NC(=O)[C@]1(C)CCCC=CCCCCCC[C@@](C)(NC(=O)[C@H](Cc2ccccc2)NC(=O)[C@@H](NC(=O)[C@H](CC(C)C)NC(C)=O)[C@@H](C)O)C(=O)N[C@@H](CCC(=O)O)C(=O)N[C@@H](Cc2ccc(O)cc2)C(=O)N[C@@H](Cc2c[nH]c3ccccc23)C(=O)N[C@@H](C)C(=O)N[C@@H](CCC(N)=O)C(=O)N[C@@H](CC(C)C)C(=O)N1)C(=O)N[C@H](C)C(N)=O [compound 277] (Ac-LTF[R8]EYWAQL[S5]AW[Nle][dA]-NH2; staple 4-11)
10 to 100 | < 10 | 10 to 100 | < 10 | CCCC[C@H](NC(=O)[C@H](Cc1c[nH]c2ccccc12)NC(=O)[C@H](C)NC(=O)[C@]1(C)CCCC=CCCCCCC[C@@](C)(NC(=O)[C@H](Cc2ccccc2)NC(=O)[C@@H](NC(=O)[C@H](CCC(=O)O)NC(C)=O)[C@@H](C)O)C(=O)N[C@@H](CCC(=O)O)C(=O)N[C@@H](Cc2ccc(O)cc2)C(=O)N[C@@H](Cc2c[nH]c3ccccc23)C(=O)N[C@@H](C)C(=O)N[C@@H](CCC(N)=O)C(=O)N[C@@H](CC(C)C)C(=O)N1)C(=O)N[C@H](C)C(N)=O [compound 278] (Ac-ETF[R8]EYWAQL[S5]AW[Nle][dA]-NH2; staple 4-11)
< 10 | < 10 | 100 to 1000 | 10 to 100 | CCCC[C@H](NC(=O)[C@H](C)NC(=O)[C@H](C)NC(=O)[C@]1(C)CCCC=CCCCCCC[C@@](C)(NC(=O)[C@H](Cc2ccccc2)NC(=O)[C@@H](NC(=O)[C@H](CC(C)C)NC(C)=O)[C@@H](C)O)C(=O)N[C@@H](C)C(=O)N[C@@H](Cc2ccc(O)cc2)C(=O)N[C@@H](Cc2c[nH]c3ccccc23)C(=O)N[C@@H](CO)C(=O)N[C@@H](CCC(N)=O)C(=O)N[C@@H](CC(C)C)C(=O)N1)C(=O)N[C@@H](C)C(N)=O [compound 306] (Ac-LTF[R8]AYWSQL[S5]AA[Nle]A-NH2; staple 4-11)
